In patent publication US8871741B2, “Inhibition of TNF-α induced activation of NFKB by pentosan polysulfate” (Icahn School of Medicine at Mount Sinai, priority 2010, dated 2014):

Key:
MMP-9 = experiment: Zymography of U937 cell supernatants, MMP-9; assay type: cell-based, human; conditions: U937 cells stimulated with 10 ng/ml TNF-α, 100 μg/ml PPS; P<0.01
Description: Human pro-monocytic U937 cells were obtained from American Type Culture Collection (Manassas, Va.) and grown in RPMI medium supplemented with 10% FBS. U937 cells were plated in six-well plates at a density of 5×10^6 cells/ml. The cells were then stimulated with 10 ng/ml TNF-α, in the presence or absence of either increasing concentrations of PPS (10-100 μg/ml) or heparin (100 μg/ml), and incubated at 37° C. for 3 hours. Following stimulation, cells were placed in 0.1% BSA-serum-free medium for 16-18 hours. The media was then collected, centrifuged, and supernatants were stored at −80° C. for the assessment of MMP activity. The cell number was determined by direct cell counting.
MMP activity in aortic extracts and conditioned media from monocytes was assessed, as previously described (Jacot T A, et al., Lab Invest. 1996; 75:791-79). Briefly, aortic segments were homogenized and extracted in RIPA buffer (25 mM Tris, pH 7.4, 150 mM KCl, 5 mM EDTA, 1% Nonidet P-40, 0.5% sodium deoxycholate, and 0.1% SDS). Insoluble material was precipitated by centrifugation, and soluble extracts were collected and stored at −20° C. for further analysis. For in vitro experiments, cell supernatants were centrifuged to remove cellular debris, and diluted appropriately to normalize for cell number. […]

MMP-2 and MMP-9 = experiment: Zymography of supernatants of human peripheral blood-derived macrophages; assay type: cell-based; conditions: TNF-α stimulated human peripheral blood-derived macrophages, 100 μg/ml PPS
Description: Human peripheral blood monocytes were isolated as previously described (Valone F H, Epstein L B. J Immunol. 1988; 141: 3945-3950), and maintained in medium 199 supplemented with 2% human serum for in vitro differentiation into macrophages (Camussi G, et al., J Exp Med. 1987; 166: 1390-1404).
MMP activity in aortic extracts and conditioned media from monocytes was assessed, as previously described (Jacot T A, et al., Lab Invest. 1996; 75:791-79). Briefly, aortic segments were homogenized and extracted in RIPA buffer (25 mM Tris, pH 7.4, 150 mM KCl, 5 mM EDTA, 1% Nonidet P-40, 0.5% sodium deoxycholate, and 0.1% SDS). Insoluble material was precipitated by centrifugation, and soluble extracts were collected and stored at −20° C. for further analysis. For in vitro experiments, cell supernatants were centrifuged to remove cellular debris, and diluted appropriately to normalize for cell number. Aortic extracts and conditioned media were then mixed with sample buffer (1% SDS, 0.08 M Tris pH 6.8, 4% glycerol, and 0.006% bromophenol blue), and loaded onto a 10% gelatin polyacrylamide gel, and processed as described (Jacot T A, et al., Lab Invest. 1996; 75:791-79). For reverse zymography, samples were loaded onto a 15% gelatin polyacrylamide gel containing 0.5% porcine gelatin and 6 μg recombinant gelatinase A, and processed as described (Elliot S J, et al., J Am Soc Nephrol. 1999; 10: 62-68).

[1] = test system: MCP-1, RANTES, CXCL1, MIP-2, ICAM-1, and iNOS mRNA; experiment: TNFα induced pro-inflammatory gene expression in proximal tubular cell line, real-time PCR; assay type: cell-based, mouse; conditions: PPS 200 μg/ml for 1 hour before TNFα 10 ng/ml, RNA 4 hours later
Description: (§1) A proximal tubular cell line obtained from mice transgenic for SV40 T antigen was grown in DMEM containing 10% FBS. For the measurement of TNFα-stimulated gene expression, 1×10^5 proximal tubular cells were transferred to each well of a 6-well-plate. After placing the cells in 0.1% FBS medium for 24 hours, 10 ng/ml of TNFα was added to test wells. Total RNA was isolated from all wells 4 hours later. MCP-1, RANTES, CXCL1, MIP-2, ICAM-1, and iNOS mRNA levels were determined by real-time PCR as described above and corrected by β-actin mRNA levels. TNFα stimulated MCP-1 and RANTES production and release into the medium was measured in TNFα (10 ng/ml) treated and control cells at 24 hours. The amount of MCP-1 or RANTES in the medium was measured by ELISA (Invitrogen Corporation (Carlsband, Calif.).
(§2) To determine the effect of PPS on TNFα induced upregulation of proinflammatory genes, proximal tubular cells were pre-treated with PPS (200 μg/ml) for 1 hour before the addition of TNFα (10 ng/ml). MCP-1, RANTES, CXCL1, MIP-2, ICAM-1, and iNOS mRNA levels were determined 4 hours later by real-time PCR. MCP-1 and RANTES production was also measured.

MCP-1 and RANTES = experiment: TNFα stimulated MCP-1 and RANTES production by proximal tubular cells, ELISA; assay type: cell-based, mouse; conditions: PPS 200 μg/ml pretreatment, TNFα 10 ng/ml, p<0.01 vs. TNFα alone
Description: as §1, §2

ERK1/2 = experiment: TNFα stimulated ERK1/2 phosphorylation in proximal tubular cells, Western-blot; assay type: cell-based, mouse
Description: The activation of NF-κB and mitogen activated protein kinases including p38, JNK (Jun N-terminal kinase), and ERK (extracellular signal regulated kinase) pathways play an essential role in proinflammatory actions of TNFα. Thus, it was examined whether PPS affected the phosphorylation of IκB, ERK, p38, and JNK by TNFα. Proximal tubular cells were allowed to grow to 70% confluency in […] petri-dish. Cell lysates were collected before or 15, 30, 60, and 120 minutes after TNFα treatment (10 ng/ml). Cells in some dishes were pre-incubated with PPS (400 μg/ml) for ½ hour before exposure to TNFα. The levels of phosphorylated IκB, ERK, p38, and JNK were determined by Western-blots. Briefly, equal amounts of protein samples (10-20 μg/lane) were loaded onto SDS-PAGE gels. After electrophoresis, proteins were transferred to nitrocellulose membranes and blotted with antibody against phosphorylated IκB, ERK, p38, or JNK (Cell signaling, Boston, Mass.). After the first analysis, the membranes were stripped to re-probe with antibody against total IκB, ERK, p38 or JNK, and ERK and finally with antibody against β-actin (Cell signaling, Boston, Mass.).

podocytes = experiment: Albumin permeability of podocyte monolayers (FITC-labeled BSA flux); assay type: cell-based; conditions: podocyte monolayer
Description: 1×10^5 podocytes were seeded onto collagen-coated transwell filters ([…] pore-size, Corning, N.Y., N.Y.) placed in the top chamber of each well of a 24-well plate. After cells reached confluence, some wells of cells were treated with TNFα (20 ng/ml), PPS (400 μg/ml), or PPS plus TNFα in 2% FBS medium for 8 hours. Then the medium from both the top and bottom chamber was completely removed, cells were washed twice with PBS and the top chamber was refilled with 0.2 ml 2% FBS medium supplemented with 0.5 mg/ml FITC-labeled BSA (Sigma Aldrich, St Louis, […].), while the bottom chamber was refilled with 0.6 ml 2% FBS medium supplemented with 0.5 mg/ml unlabeled BSA. At different time points, 100 μl aliquots were collected from the bottom chamber and fluorescence was measured by a fluorescence spectrophotometer (485 nm excitation, 535 nm emission). The concentration of FITC-BSA passing through the monolayer was determined by reference to a set of standard dilutions of FITC-BSA. The value of albumin flux through untreated monolayer was arbitrarily defined as 100%.

## pentosan polysulfate [PPS]
MMP-9
  MMP-9 activity, reduction by PPS treatment: 51.70%±10.77%
MMP-2 and MMP-9
  effect on MMP production: inhibitory effect
[1]
  TNFα stimulation of MCP-1, RANTES, CXCL-1, MIP-2, ICAM-1 and iNOS mRNA expression: largely prevented
MCP-1 and RANTES
  TNFα stimulated MCP-1 and RANTES protein production: decreased
ERK1/2
  TNFα-stimulated ERK1/2 phosphorylation: suppressed
podocytes; PPS 400 μg/ml plus TNFα 20 ng/ml, FIG. 18 legend
  inhibition of the flux of FITC-labeled BSA: 34%
podocytes; PPS 400 μg/ml, TNFα 20 ng/ml
  reduction of the TNFα-induced increase in FITC-labeled albumin passage: ~60%
